{"source": "patent US8097625B2", "about": "“Combination of sedative and a neurotransmitter modulator, and methods for improving sleep quality and treating depression” (priority 2003, dated 2012)", "origin": "cited, not measured here", "key": {"[1]": {"conditions": "oral, 10 mg or 20 mg daily doses; cited from earlier work"}, "[2]": {"tested_on": "patients with major depression", "conditions": "24 patients (37 trials) with major depression, 3 weeks; cited from earlier work"}, "[3]": {"tested_on": "norepinephrine and serotonin reuptake", "conditions": "cited from earlier work"}, "[4]": {"conditions": "humans, cited from earlier work"}, "[5]": {"conditions": "cited from earlier work"}, "[6]": {"target": "norepinephrine transporter (Homo sapiens, UniProt P23975)", "sequence (P23975 whole entry)": "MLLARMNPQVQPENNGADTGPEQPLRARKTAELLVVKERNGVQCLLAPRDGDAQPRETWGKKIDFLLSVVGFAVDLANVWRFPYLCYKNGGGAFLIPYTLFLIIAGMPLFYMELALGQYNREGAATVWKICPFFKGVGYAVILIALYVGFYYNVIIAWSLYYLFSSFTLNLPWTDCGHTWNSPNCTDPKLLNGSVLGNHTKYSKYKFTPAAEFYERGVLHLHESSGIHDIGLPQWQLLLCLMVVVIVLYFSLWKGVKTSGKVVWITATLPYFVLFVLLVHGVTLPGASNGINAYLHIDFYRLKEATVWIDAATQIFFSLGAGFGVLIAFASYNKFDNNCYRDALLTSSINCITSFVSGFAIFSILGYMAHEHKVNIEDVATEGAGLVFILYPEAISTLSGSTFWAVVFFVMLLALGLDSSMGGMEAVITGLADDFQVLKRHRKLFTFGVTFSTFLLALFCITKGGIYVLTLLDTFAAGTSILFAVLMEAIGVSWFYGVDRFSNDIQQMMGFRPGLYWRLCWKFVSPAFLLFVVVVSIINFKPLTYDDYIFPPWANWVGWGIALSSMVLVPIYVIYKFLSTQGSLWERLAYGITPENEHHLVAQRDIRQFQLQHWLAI", "conditions": "cited from earlier work"}, "[7]": {"conditions": "cited from earlier work", "remark": "listed apart in the source"}, "[8]": {"tested_on": "L-glutamate 1-carboxylase", "conditions": "10^−3 M; cited from earlier work"}, "[9]": {"tested_on": "GABA uptake system", "design": "dose or concentration left out as unconfirmed", "conditions": "cited from earlier work"}, "[10]": {"target": "GABA:2-oxo-glutarate aminotransferase (Homo sapiens, UniProt P80404)", "sequence (P80404 29-500)": "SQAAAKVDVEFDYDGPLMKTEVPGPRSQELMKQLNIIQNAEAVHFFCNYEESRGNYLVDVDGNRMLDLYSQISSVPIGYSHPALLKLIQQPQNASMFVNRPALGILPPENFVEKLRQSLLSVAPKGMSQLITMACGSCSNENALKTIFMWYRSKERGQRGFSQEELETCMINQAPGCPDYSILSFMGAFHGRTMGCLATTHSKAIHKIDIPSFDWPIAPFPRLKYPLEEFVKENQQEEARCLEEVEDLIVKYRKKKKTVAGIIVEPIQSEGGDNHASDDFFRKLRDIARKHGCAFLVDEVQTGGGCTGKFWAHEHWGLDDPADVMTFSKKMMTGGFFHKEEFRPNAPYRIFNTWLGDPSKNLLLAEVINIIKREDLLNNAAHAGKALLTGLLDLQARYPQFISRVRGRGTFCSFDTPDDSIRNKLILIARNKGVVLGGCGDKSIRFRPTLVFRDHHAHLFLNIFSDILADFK", "conditions": "10^−3 M; cited from earlier work"}, "[11]": {"tested_on": "lumbar dorsal horn interneurones and Renshaw cells", "conditions": "cats anaesthetized with pentobarbitone sodium; electrophoretic currents; cited from earlier work"}, "[12]": {"tested_on": "mice", "conditions": "reference agents, scores below 40 denote behavioral depression; cited from earlier work"}, "[13]": {"conditions": "humans, 20 or 40 mg b.i.d. for 7 days; cited from earlier work"}, "[14]": {"conditions": "oral; cited from earlier work"}}, "note": "Counter-ions that a name gives are not always drawn."}
{"molecule": "CNCCC(Oc1ccc(C(F)(F)F)cc1)c1ccccc1.Cl", "note": "(racemic) [Fluoxetine hydrochloride, N-methyl-3-(p-trifluormethylphenoxy)3-phenylpropylamine]", "values": [{"measurement": "elimination half-life", "setting": "[1]", "result": "24 to 220", "unit": "h"}, {"measurement": "elimination half-life, averaging", "setting": "[1]", "result": "48 to 72", "unit": "h"}]}
{"molecule": "CNCC(O)CC12CCC(c3ccccc31)c1ccccc12", "note": "(racemic) [oxaprotiline, (±)-α-[(Methylamino)-methyl]-9,10-ethanoanthracene-9(10H)-ethanol]", "values": [{"measurement": "Hamilton Scores", "setting": "[2]", "result": "significant reduction"}]}
{"molecule": "CCN(CC)C(=O)[C@@]1(c2ccccc2)C[C@H]1CN", "note": "(single isomer, unassigned) [dextrogyral enantiomer of milnacipran]", "values": [{"measurement": "activity in inhibiting norepinephrine and serotonin reuptake versus the racemic mixture", "setting": "[3]", "result": "about twice as active"}]}
{"molecule": "CCN(CC)C(=O)[C@@]1(c2ccccc2)C[C@H]1CN", "note": "(single isomer, unassigned) [levrogyral enantiomer]", "values": [{"measurement": "activity in inhibiting norepinephrine and serotonin reuptake versus the racemic mixture", "setting": "[3]", "result": "much less potent"}]}
{"molecule": "CC(NC(C)(C)C)C(=O)c1cccc(Cl)c1", "note": "(stereo not drawn) [Bupropion]", "values": [{"measurement": "mean elimination half-life (±SD)", "setting": "[4]; after chronic dosing", "result": "21 (±9) hours"}, {"measurement": "terminal phase mean half-life", "setting": "[4]; oral administration", "result": 14, "unit": "h"}]}
{"molecule": "CNCCCN1c2ccccc2CCc2ccccc21", "note": "[Desipramine hydrochloride, 10,11-Dihydro-N-methyl-5H-dibenz[b,f]azepine-5-propanamine]", "values": [{"measurement": "solubility in water (in words)", "setting": "[5]", "result": "soluble in water"}]}
{"molecule": "c1ccc(CCCN2CCN(CCOC(c3ccccc3)c3ccccc3)CC2)cc1", "note": "[GBR-12935, 1-[2-(diphenylmethoxy)ethyl]-4-(3-phenylpropyl)piperazine dihydrochloride]", "values": [{"measurement": "Ki", "setting": "[6]", "result": 225, "unit": "nM"}]}
{"molecule": "CC(=O)N(C)c1cccc(-c2ccnc3c(C(=O)c4cccs4)cnn23)c1", "note": "[Indiplon, N-methyl-N-(3-{3-[2-thienylcarbonyl]-pyrazolo-[1,5-a]-pyrimidin-7-yl}-phenyl)acetamide]", "values": [{"measurement": "half-life in vivo", "setting": "[7]", "result": "approximately 1.3 hours"}, {"measurement": "resulting pH of solution in water", "setting": "[5]; at approximately 20-30 µg/mL", "result": "approximately 8.0"}, {"measurement": "soluble in water", "setting": "[5]; resulting pH approximately 8.0", "result": "20 to 30", "unit": "µg/mL"}]}
{"molecule": "CNCCCC12CCC(c3ccccc31)c1ccccc12", "note": "[Maprotiline hydrochloride, N-Methyl-9,10-ethanoanthracene-9(10H)-propanamine]", "values": [{"measurement": "solubility in water (in words)", "setting": "[5]", "result": "slightly soluble in water"}]}
{"molecule": "Oc1noc2c1CCNC2", "note": "[gaboxadol, 4,5,6,7-tetrahydroisoxazolo[5,4-c]pyridin-3-ol]", "values": [{"measurement": "interaction with L-glutamate 1-carboxylase", "setting": "[8]", "result": "did not interact"}, {"measurement": "interaction with the GABA uptake system", "setting": "[9]", "result": "did not interact"}, {"measurement": "interaction with GABA:2-oxo-glutarate aminotransferase", "setting": "[10]", "result": "did not interact"}, {"measurement": "potency versus GABA, inhibition of the firing of central neurones", "setting": "[11]", "result": "relatively more potent than GABA"}]}
{"molecule": "CCC1(c2ccccc2)CCC(=O)NC1=O", "note": "(stereo not drawn) [glutethimide]", "values": [{"measurement": "ED100", "setting": "[12]", "result": 300, "unit": "mg/kg"}]}
{"molecule": "O=C(CCCN1CCC(O)(c2ccc(Cl)cc2)CC1)c1ccc(F)cc1", "note": "[haloperidol]", "values": [{"measurement": "ED100", "setting": "[12]", "result": 10, "unit": "mg/kg"}]}
{"molecule": "CCCC(C)(COC(N)=O)COC(N)=O", "note": "[meprobamate]", "values": [{"measurement": "ED100", "setting": "[12]", "result": 300, "unit": "mg/kg"}]}
{"molecule": "CCCC(C)C1(CC)C(=O)NC(=O)NC1=O", "note": "(stereo not drawn) [pentobarbital]", "values": [{"measurement": "ED100", "setting": "[12]", "result": 100, "unit": "mg/kg"}]}
{"molecule": "COC(=O)[C@H]1[C@H]2C[C@@H]3c4[nH]c5cc(OC)ccc5c4CCN3C[C@H]2C[C@@H](OC(=O)c2cc(OC)c(OC)c(OC)c2)[C@@H]1OC", "note": "[reserpine]", "values": [{"measurement": "ED100", "setting": "[12]", "result": 50, "unit": "mg/kg"}]}
{"molecule": "CNCC[C@@H](Oc1ccccc1C)c1ccccc1", "note": "[tomoxetine, (R)-(−)-N-methyl-3-(2-methylphenoxy)-3-phenylpropylamine]", "values": [{"measurement": "drug-related adverse effects", "setting": "[13]", "result": "no serious drug-related adverse effects were observed"}]}
{"molecule": "Cc1ccc(-c2nc3ccc(C)cn3c2CC(=O)N(C)C)cc1", "note": "[zolpidem, N,N,6-trimethyl-2-(4-methylphenyl)-imidazo [1,2-s]pyridine-3-acetamide]", "values": [{"measurement": "duration of action", "setting": "[14]", "result": "up to 6 hours"}]}
